Several values for one entry are separate records, joined by “and”; a condition that tells them apart may be missing. Equal entries are not always repeated. Blank lines part the entries; values can stand above or below the compound they belong to.
Tests used:
[1] = cited from earlier work
[2] = Pharmacokinetic incorporation of the hydrophilic collyrium in rabbit cornea, retina and plasma (CoQ10 concentration); format: in vivo; conditions: for RETINA Q10-treated, Average / RETINA Q10-treated: retina of treated eye
Description: Assessment of the pharmacokinetic activity of incorporation of the hydrophilic collyrium in rabbit cornea, retina and plasma.
a) The hydrophilic collyrium was assayed on a first lot of three rabbits by instilling Coenzyme Q10 in the right eye and an equivalent excipient free from Q10 and vitamin E TPQS in the contralateral (basal) eye. At + 15 min from the collyrium instillation, CoQ10 concentration in the treated eye and in the other (basal) eye was analysed. The analysis was performed on the retina, the cornea and the plasma of the two eyes.
b) .A second lot of six rabbits was subjected to an analogous assay in which the waiting time was prolonged up to 30 min.

[3] = tested on: superoxide anion generated by human PMNs (polymorphonucleates); conditions: human PMNs suitably stimulated; Ferrocytochrome C method
[4] = treated minus basal, 15 min, average of 3 rabbits
[5] = treated vs basal, 15 min, average of 3 rabbits

incorporation in the cornea ([2]; at both times considered (15 min and 30 min)): scarce
CORNEA Q10-treated, Average ([2]; cornea of treated eye, 15 min, average of 3 rabbits): 1004 pmoles/g
CORNEA Difference, Average ([2]; cornea, treated minus basal, 15 min, average of 3 rabbits): 74 pmol/g
CORNEA %Increase, Average ([2]; cornea, treated vs basal, 15 min, average of 3 rabbits): 7%
CORNEA %Increase ([2]; cornea, treated vs basal, 15 min, individual rabbits): -3% and 65% and -11%
CORNEA %Increase, Average ([2]; cornea, treated vs basal, 30 min, average of 6 rabbits): 4%
PLASMA Q10-treated, Average ([2]; 15 min, average of 3 rabbits): 74 pmoles/g
PLASMA Q10-treated, Average ([2]; 30 min, average of 6 rabbits): 83 pmoles/g
PLASMA Difference, Average [2, 4]: 10 pmol/g
PLASMA Difference, Average ([2]; treated minus basal, 30 min, average of 6 rabbits): 13 pmol/g
PLASMA %Increase, Average [2, 5]: 16%
PLASMA %Increase ([2]; treated vs basal, 15 min, individual rabbits): 15% and 8% and 28%
PLASMA %Increase, Average ([2]; treated vs basal, 30 min, average of 6 rabbits): 18%
PLASMA %Increase ([2]; treated vs basal, 30 min, individual rabbits): 21% (2×) and 7% and 28% and 23% and 12%
RETINA Q10-treated, Average ([2]; 15 min, average of 3 rabbits): 754 pmoles/g
RETINA Q10-treated, Average ([2]; second lot (30 min; head prints 15 min), average of 6 rabbits): 1084.3 pmoles/g
RETINA Difference, Average [2, 4]: 5 pmol/g
RETINA Difference, Average ([2]; treated minus basal, second lot (30 min; head prints 15 min), average of 6 rabbits): 138.8 pmol/g
RETINA %Increase, Average ([2]; treated vs basal (contralateral eye), second lot (30 min; head prints 15 min), average of 6 rabbits): 15%
RETINA % Increase ([2]; treated vs basal eye, 15 min, individual rabbits): -9% and 2% and 11%
RETINA %Increase, Average [2, 5]: 1%
RETINA % Increase ([2]; treated vs basal, second lot (30 min; head prints 15 min), individual rabbits): 21% and 4% and 11% (2×) and 28% and 18%
Compound: COC1=C(OC)C(=O)C(C/C=C(\C)CC/C=C(\C)CC/C=C(\C)CC/C=C(\C)CC/C=C(\C)CC/C=C(\C)CC/C=C(\C)CC/C=C(\C)CC/C=C(\C)CCC=C(C)C)=C(C)C1=O [Formulation Q10, Ubiquinone Q10]
solubility in water [1]: totally insoluble in water
CORNEA Q10-treated ([2]; cornea of treated eye, 15 min, individual rabbits N. 15-17): 887 pmoles/g and 955 pmoles/g and 1170 pmoles/g
CORNEA Difference ([2]; cornea, treated minus basal, 15 min, individual rabbits): -34 pmol/g and 377 pmol/g and -150 pmol/g
CORNEA %Increase ([2]; cornea, treated vs basal, 30 min, individual rabbits): -17% and 16% (2×) and 24% and -7% and -16%
PLASMA Q10-treated ([2]; 15 min, individual rabbits N. 15-17): 62 pmoles/g and 83 pmoles/g and 78 pmoles/g
PLASMA Q10-treated ([2]; 30 min, individual rabbits N. 18-23): 79 pmoles/g and 105 pmoles/g and 106 pmoles/g and 53 pmoles/g and 81 pmoles/g and 73 pmoles/g
PLASMA Difference ([2]; treated minus basal, 15 min, individual rabbits): 8 pmol/g and 6 pmol/g and 17 pmol/g
PLASMA Difference ([2]; treated minus basal, 30 min, individual rabbits): 14 pmoles/g (2×) and 7 pmoles/g and 23 pmoles/g and 10 pmoles/g and 8 pmoles/g
RETINA Q10-treated ([2]; 15 min after instillation, individual rabbits N. 15-17): 787 pmoles/g and 632 pmoles/g and 843 pmoles/g
RETINA Q10-treated ([2]; second lot (waiting time 30 min; head prints 15 min), individual rabbits N. 18-23): 1006 pmoles/g and 1394 pmoles/g and 1037 pmoles/g and 725 pmoles/g and 975 pmoles/g and 1369 pmoles/g
RETINA Difference ([2]; treated minus basal (contralateral) eye, 15 min, individual rabbits): -82 pmol/g and 14 pmol/g and 83 pmol/g
RETINA Difference ([2]; treated minus basal, second lot (30 min; head prints 15 min), individual rabbits): 177 pmol/g and 57 pmol/g and 106 pmol/g and 74 pmol/g and 211 pmol/g and 208 pmol/g

Compound: d-Alpha-tocopheryl polyethylene glycol 1000-succinate [vitamin E TPGS]
scavenging action with regards to the superoxide anion [3]: scavenging action

Source: patent EP1464341B1, “Ubiquinone-containing water-soluble formulation for ophthalmic use” (Visufarma S.p.A, priority 2003, dated 2004)
